In WO2023227069A1, “Polidocanol with single molecular weight, and use thereof” (Jenkem Technology Co Ltd, priority 2022, dated 2023):
Read-outs that look alike come from different tables or passages of the source.

Columns and labels:
rabbit ear marginal vein = assay: Venous sclerosis after single injection of foam preparation into rabbit marginal ear vein (effective rate, appearance); format: in vivo, New Zealand rabbit; conditions: for Effective rate of venous sclerosis compared with positive control low-dose group: in words
[1] = test system: HUVEC (human umbilical vein endothelial cells); assay: Cytotoxicity on HUVEC (CCK8), IC50 of polidocanols with different chain lengths; format: cell-based; conditions: in words, values of Table 8 not in this copy
[2] = test system: marginal ear vein of rabbits; assay: Venous pathological sections 14 days after injection into rabbit marginal ear vein; format: in vivo, New Zealand rabbit; conditions: for Pathological score of rabbit ear blood vessels compared with positive low-dose control group: in words
[3] = Foaming efficiency of 1% solutions (foam drainage, half-life, coalescence); format: physicochemical; conditions: 1% solution, 20 pumps
[4] = 14 days after intravenous injection into rabbit ear margin

For `CCCCCCCCCCCCOCCOCCOCCOCCOCCOCCOCCOCCOCCOCCOCCO` [DD-PEG11-OH], the “Effective rate of venous sclerosis” value (rabbit ear marginal vein; [4]) was “above 83.33%”, the “Effective rate of venous sclerosis compared with positive control low-dose group” value (rabbit ear marginal vein; 14 days) was “not lower than the positive control low-dose group” and the “Effective rate of venous sclerosis compared with positive control low-dose group” value (rabbit ear marginal vein; 21 days) was “higher than the positive control low-dose group”. The “IC50 value compared with polidocanol group” value [1] was “smaller than those of the polidocanol group”, the “Pathological changes in blood vessels, high magnification” value [2] was “a large number of fibroblast proliferations can be seen in the lumen, and red blood cells are scattered among local fibroblasts; new capillaries and macrophages that phagocytose hemosiderin can be seen locally” and the “Pathological changes in blood vessels, low magnification” value [2] was “The tissue structure of each layer of the wall is unclear and the blood vessel lumen is occluded”. The “Pathological score of rabbit ear blood vessels compared with positive low-dose control group” value [2] was “higher than those of the positive low-dose control group”.

In the case of `CCCCCCCCCCCCOCCOCCOCCOCCOCCOCCOCCOCCOCCO` [DD-PEG9-OH], the Appearance of veins (rabbit ear marginal vein; 14 days after administration, low-dose group) is reported as “some Blood vessels are blocked”, the “Effective rate of venous sclerosis” value (rabbit ear marginal vein; 14 days, P9 high-dose group) is reported as “above 83.33%” and the “Effective rate of venous sclerosis compared with positive control low-dose group” value (rabbit ear marginal vein; 14 days, P9 high-dose group) is reported as “not lower than the positive control low-dose group”. For the same molecule, the “Effective rate of venous sclerosis” value (rabbit ear marginal vein; 14 days, P9 low-dose group) was “above 83.33%”, the “Effective rate of venous sclerosis compared with positive control low-dose group” value (rabbit ear marginal vein; 14 days, P9 low-dose group) was “not lower than the positive control low-dose group” and the Appearance of veins (rabbit ear marginal vein; 21 days after administration, low-dose group) was “some blood vessels in the rabbit ear Completely blocked”. For the same molecule, the “Effective rate of venous sclerosis compared with positive control low-dose group” value (rabbit ear marginal vein; 21 days, P9 high-dose group) was “higher than the positive control low-dose group”, the “Effective rate of venous sclerosis compared with positive control low-dose group” value (rabbit ear marginal vein; 21 days, P9 low-dose group) was “higher than the positive control low-dose group” and the “IC50 value compared with polidocanol group” value [1] was “smaller than those of the polidocanol group”. The “Pathological score of rabbit ear blood vessels compared with positive low-dose control group” value ([2]; P9 high-dose group) was “higher than those of the positive low-dose control group”, the “Pathological score of rabbit ear blood vessels compared with positive low-dose control group” value ([2]; P9 low-dose group) was “higher than those of the positive low-dose control group” and the “Pathological changes in blood vessels, high magnification” value ([2]; high-dose group) was “a large number of fibroblast proliferations can be seen in the lumen, and red blood cells are scattered among local fibroblasts; new capillaries and macrophages that phagocytose hemosiderin can be seen locally”. For the same molecule, the “Pathological changes in blood vessels, low magnification” value ([2]; high-dose group) was “The tissue structure of each layer of the wall is unclear and the blood vessel lumen is occluded”, the “Pathological changes in blood vessels, high magnification” value ([2]; low-dose group) was “a large number of fibroblast proliferations can be seen in the lumen, and red blood cells are scattered among local fibroblasts; new capillaries and macrophages that phagocytose hemosiderin can be seen locally” and the “Pathological changes in blood vessels, low magnification” value ([2]; low-dose group) was “The tissue structure of each layer of the wall is unclear and the blood vessel lumen is occluded”.

In the case of `CCCCCCCCCCCCOCCOCCOCCOCCOCCOCCOCCOCCOCCOCCOCCOCCOCCOCCOCCOCCOCCOCCOCCOCCOCCOCCOCCOCCO` [DD-PEG24-OH], the “IC50 value compared with polidocanol group” value [1] is reported as “greater than that of the polidocanol group” and the “Foam coalescence time (FCT), time for foam to completely disappear” value [3] is reported as “about 4.25 min”.

In the case of `CCCCCCCCCCCCOCCOCCOCCOCCOCCOCCOCCOCCOCCOCCO` [DD-PEG10-OH], the “Effective rate of venous sclerosis” value (rabbit ear marginal vein; [4]) is reported as “above 83.33%”, the “Effective rate of venous sclerosis compared with positive control low-dose group” value (rabbit ear marginal vein; 14 days) is reported as “not lower than the positive control low-dose group” and the “Effective rate of venous sclerosis compared with positive control low-dose group” value (rabbit ear marginal vein; 21 days) is reported as “higher than the positive control low-dose group”. The “IC50 value compared with polidocanol group” value [1] was “smaller than those of the polidocanol group”, the “Foam drainage time (FDT), precipitation time of liquid, in words” value ([3]; relative to other samples) was “relatively slow” and the “Pathological changes in blood vessels, high magnification” value [2] was “a large number of fibroblast proliferations can be seen in the lumen, and red blood cells are scattered among local fibroblasts; new capillaries and macrophages that phagocytose hemosiderin can be seen locally”. For the same molecule, the “Pathological changes in blood vessels, low magnification” value [2] was “The tissue structure of each layer of the wall is unclear and the blood vessel lumen is occluded” and the “Pathological score of rabbit ear blood vessels compared with positive low-dose control group” value [2] was “higher than those of the positive low-dose control group”.

For `CCCCCCCCCCCCOCCOCCOCCOCCOCCOCCOCCOCCO` [DD-PEG8-OH], the Appearance of veins (rabbit ear marginal vein; 14 days after administration) was “some Blood vessels are blocked”, the “Effective rate of venous sclerosis” value (rabbit ear marginal vein; [4]) was “above 83.33%” and the “Effective rate of venous sclerosis compared with positive control low-dose group” value (rabbit ear marginal vein; 14 days) was “not lower than the positive control low-dose group”. The Appearance of veins (rabbit ear marginal vein; 21 days after administration) was “some blood vessels in the rabbit ear Completely blocked”, the “Effective rate of venous sclerosis compared with positive control low-dose group” value (rabbit ear marginal vein; 21 days) was “higher than the positive control low-dose group” and the “IC50 value compared with polidocanol group” value [1] was “smaller than those of the polidocanol group”. For the same molecule, the “Pathological changes in blood vessels, high magnification” value [2] was “a large number of fibroblast proliferations can be seen in the lumen, and red blood cells are scattered among local fibroblasts; new capillaries and macrophages that phagocytose hemosiderin can be seen locally”, the “Pathological changes in blood vessels, low magnification” value [2] was “The tissue structure of each layer of the wall is unclear and the blood vessel lumen is occluded” and the “Pathological score of rabbit ear blood vessels compared with positive low-dose control group” value [2] was “higher than those of the positive low-dose control group”.

In the case of `CCCCCCCCCCCCOCCOCCOCCOCCOCCOCCOCCOCCOCCOCCOCCOCCO` [DD-PEG12-OH], the “IC50 value compared with polidocanol group” value [1] is reported as “smaller than those of the polidocanol group”.

For `CCCCCCCCCCCCOCCOCCOCCOCCO` [DD-PEG4-OH], the “IC50 value compared with polidocanol group” value [1] was “greater than that of the polidocanol group”, the “Foam half-life time (FHT), in words” value ([3]; even if a small amount of foam is formed) was “disappear in a very short time” and the Foam formation ([3]; in words, listed as P4) was “it is difficult for the P4 sample to form foam”.
